From patent publication US20040082589A1, “Quinoline derivatives as nk-3 and nk-2 antagonists” (priority 2000, published 2004) come the findings set out here.

For the molecule `C[C@H](NC(=O)c1c(CN2CCN(C(=O)[C@@H]3C[C@H]3C(=O)O)CC2)c(-c2ccccc2)nc2ccccc12)c1ccccc1` (mixture of isomers) [Example 7, Trans 2-(1-{4-[2-Phenyl-4-((S)-1-phenyl-ethylcarbamoyl)-quinolin-3-ylmethyl]-piperazin-1-yl}-methanoyl)-cyclopropanecarboxylic acid], the melting point (in general, the temperature, or range, at which the solid turns liquid) lay within 135 to 145 °C. In turn, `C[C@H](NC(=O)c1c(CN2CCN(C(=O)[C@H]3CCCC[C@H]3C(=O)O)CC2)c(-c2ccccc2)nc2ccccc12)c1ccccc1` (mixture of isomers) [Example 8, Cis 2-(1-{4-[2-Phenyl-4-((S)-1-phenyl-ethylcarbamoyl)-quinolin-3-ylmethyl]-piperazin-1-yl}-methanoyl)-cyclohexanecarboxylic acid] showed a melting point of 130 to 140 °C. On to `C[C@H](NC(=O)c1c(CN2CCN(C(=O)CC(C)(C)CC(=O)O)CC2)c(-c2ccccc2)nc2ccccc12)c1ccccc1` [Example 6, 3,3-Dimethyl-5-oxo-5-{4-[2-phenyl-4-((S)-1-phenyl-ethylcarbamoyl)-quinolin-3-ylmethyl]-piperazin-1-yl}-pentanoic acid], for which the melting point was in the range of 213 to 215 °C.

As to `C[C@H](NC(=O)c1c(CN2CCN(C(=O)/C=C/C(=O)O)CC2)c(-c2ccccc2)nc2ccccc12)c1ccccc1` [Example 9, (E)-4-Oxo-4-{4-[2-phenyl-4-((S)-1-phenyl-ethylcarbamoyl)-quinolin-3-ylmethyl]-piperazin-1-yl}-but-2-enoic acid], the melting point was 214 to 215 °C. As for `C[C@H](NC(=O)c1c(CN2CCN(C(=O)CC(=O)O)CC2)c(-c2ccccc2)nc2ccccc12)C1CCCCC1` [Example 10, 3-{4-[4-((S)-1-Cyclohexyl-ethylcarbamoyl)-2-phenyl-quinolin-3-ylmethyl]-piperazin-1-yl}-3-oxo-propionic acid], the melting point lay in the range of 150 to 155 °C. With `C[C@H](NC(=O)c1c(CN2CCN(C(=O)CCCC(=O)O)CC2)c(-c2ccccc2)nc2ccccc12)C1CCCCC1` [Example 11, 5-{4-[4-((S)-1-Cyclohexyl-ethylcarbamoyl)-2-phenyl-quinolin-3-ylmethyl]-piperazin-1-yl}-5-oxo-pentanoic acid] the figure was 125 to 130 °C; with `C[C@H](NC(=O)c1c(CN2CCN(C(=O)c3nccnc3C(=O)O)CC2)c(-c2ccccc2)nc2ccccc12)C1CCCCC1` [Example 12, 3-(1-{4-[4-((S)-1-Cyclohexyl-ethylcarbamoyl)-2-phenyl-quinolin-3-ylmethyl]-piperazin-1-yl}-methanoyl)-pyrazine-2-carboxylic acid], 162 to 165 °C. The molecule `C[C@H](NC(=O)c1c(CN2CCN(C(=O)c3cccc(C(=O)O)c3)CC2)c(-c2ccccc2)nc2ccccc12)C1CCCCC1` [Example 13, 3-(1-{4-[4-((S)-1-Cyclohexyl-ethylcarbamoyl)-2-phenyl-quinolin-3-ylmethyl]-piperazin-1-yl}-methanoyl)-benzoic acid] returned a melting point of 179 to 180 °C. In the case of `C[C@H](NC(=O)c1c(CN2CCN(C(=O)c3cncc(C(=O)O)c3)CC2)c(-c2ccccc2)nc2ccccc12)C1CCCCC1` [Example 14, 5-(1-{4-[4-((S)-1-Cyclohexyl-ethylcarbamoyl)-2-phenyl-quinolin-3-ylmethyl]-piperazin-1-yl}-methanoyl)-nicotinic acid], the melting point is 250 to 255 °C (dec.). The result for `C[C@H](NC(=O)c1c(CN2CCN(C(=O)c3ccc(C(=O)O)cc3)CC2)c(-c2ccccc2)nc2ccccc12)C1CCCCC1` [Example 15, 4-(1-{4-[4-((S)-1-Cyclohexyl-ethylcarbamoyl)-2-phenyl-quinolin-3-ylmethyl]-piperazin-1-yl}-methanoyl)-benzoic acid] reads 185 to 188 °C.

The molecule `CCOC(=O)C(C(=O)N1CCN(Cc2c(-c3ccccc3)nc3ccccc3c2C(=O)N[C@@H](C)C2CCCCC2)CC1)c1ccccc1` (stereo partly drawn) [Example 16, 3-{4-[4-((S)-1-Cyclohexyl-ethylcarbamoyl)-2-phenyl-quinolin-3-ylmethyl]-piperazin-1-yl}-3-oxo-2-phenyl-propionic acid ethyl ester] registered a melting point of 125 to 129 °C.

Take `C[C@H](NC(=O)c1c(CN2CCN(C=O)CC2)c(-c2ccccc2)nc2ccccc12)C1CCCCC1` [Example 18, 3-(4-Formyl-piperazin-1-ylmethyl)-2-phenyl-quinoline-4-carboxylic acid ((S)-1-cyclohexyl-ethyl)-amide]: the melting point fell in the range of 116 to 119 °C.

`C[C@H](NC(=O)c1c(CN2CCN(C(=O)CCN)CC2)c(-c2ccccc2)nc2ccccc12)C1CCCCC1` [Example 21, 3-[4-(3-Amino-propanoyl)-piperazin-1-ylmethyl]-2-phenyl-quinoline-4-carboxylic acid ((S)-1-cyclohexyl-ethyl)-amide] registered a melting point of 164 to 166 °C. For the molecule `CCNCCC(=O)N1CCN(Cc2c(-c3ccccc3)nc3ccccc3c2C(=O)N[C@@H](C)C2CCCCC2)CC1` [Example 22, 3-[4-(3-Ethylamino-propanoyl)-piperazin-1-ylmethyl]-2-phenyl-quinoline-4-carboxylic acid ((S)-1-cyclohexyl-ethyl)-amide], the melting point worked out at 125 °C. In turn, `C[C@H](NC(=O)c1c(CN2CCN(C(=O)CCN3CCCCC3)CC2)c(-c2ccccc2)nc2ccccc12)C1CCCCC1` [Example 24, 2-Phenyl-3-[4-(3-piperidin-1-yl-propanoyl)-piperazin-1-ylmethyl]-quinoline-4-carboxylic acid ((S)-1-cyclohexyl-ethyl)-amide] yielded a melting point of 120 to 122 °C.
